According to ChEMBL document CHEMBL4177668, “Synthesis and biological evaluation of thiazole derivatives as GPR119 agonists” (Bioorg Med Chem Lett, 2017):
Calls of active or inactive are those of the source. The rule behind the calls is not given here.

Experiments:
[1] = molecular target: T1, Glucose-dependent insulinotropic receptor (Homo sapiens) (UniProt Q8TDV5); experiment: Activation of human GPR119 expressed in CHOK1 cells co-expressing CRE-luciferase at 1 uM after 6 hrs by luciferase reporter gene assay relative to GSK1292263; assay type: functional, cell-based
T1 sequence (whole entry): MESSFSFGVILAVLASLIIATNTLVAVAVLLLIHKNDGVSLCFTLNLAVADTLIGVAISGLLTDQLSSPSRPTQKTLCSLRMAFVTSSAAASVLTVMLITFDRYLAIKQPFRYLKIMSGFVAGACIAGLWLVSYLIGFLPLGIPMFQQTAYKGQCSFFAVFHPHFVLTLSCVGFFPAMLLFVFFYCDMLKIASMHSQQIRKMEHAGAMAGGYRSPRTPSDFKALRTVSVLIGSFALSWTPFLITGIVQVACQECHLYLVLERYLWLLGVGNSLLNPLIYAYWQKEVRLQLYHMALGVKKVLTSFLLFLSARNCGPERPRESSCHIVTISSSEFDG

[2] = molecular target: T2, Glucose-dependent insulinotropic receptor (Homo sapiens, UniProt Q8TDV5); experiment: Agonist activity at human GPR119 expressed in CHOK1 cells co-expressing CRE-luciferase after 6 hrs by luciferase reporter gene assay; assay type: functional, cell-based
T2 sequence (Q8TDV5 whole entry): T1 sequence (whole entry)

[3] = Metabolic stability in human liver microsomes assessed as compound remaining after 30 mins; assay type: ADME, microsome; conditions: read-out: Stability
Cytochrome P450 3A4 = Cytochrome P450 3A4 (Homo sapiens, UniProt P08684); experiment: Inhibition of CYP3A4 (unknown origin); assay type: ADME
Cytochrome P450 2C19 = Cytochrome P450 2C19 (Homo sapiens, UniProt P33261); experiment: Inhibition of CYP2C19 (unknown origin); assay type: ADME
Cytochrome P450 2A6 = molecular target: T3, Cytochrome P450 2A6 (Homo sapiens, UniProt P11509); experiment: Inhibition of CYP2A6 (unknown origin); assay type: ADME
T3 sequence (P11509 whole entry): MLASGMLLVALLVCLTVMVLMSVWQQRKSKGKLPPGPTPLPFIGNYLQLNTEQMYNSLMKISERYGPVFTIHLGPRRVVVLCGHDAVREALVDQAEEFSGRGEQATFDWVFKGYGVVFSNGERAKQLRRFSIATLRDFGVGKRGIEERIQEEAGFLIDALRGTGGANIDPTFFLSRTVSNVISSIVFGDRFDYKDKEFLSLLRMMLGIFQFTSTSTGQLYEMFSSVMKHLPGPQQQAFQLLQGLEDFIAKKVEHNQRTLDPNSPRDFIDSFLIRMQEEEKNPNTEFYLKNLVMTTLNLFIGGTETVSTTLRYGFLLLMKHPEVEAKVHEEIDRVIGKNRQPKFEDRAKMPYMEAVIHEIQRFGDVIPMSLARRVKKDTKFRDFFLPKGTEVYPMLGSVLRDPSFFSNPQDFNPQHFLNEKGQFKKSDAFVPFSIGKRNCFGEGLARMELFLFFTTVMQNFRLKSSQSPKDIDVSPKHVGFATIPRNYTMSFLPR

CHO-K1 = experiment: Cytotoxicity against CHOK1 cells; assay type: cell-based; conditions: Cricetulus griseus
NIH3T3 = experiment: Cytotoxicity against mouse NIH/3T3 cells; assay type: cell-based
L929 = experiment: Cytotoxicity against mouse L929 cells; assay type: cell-based
Vero = experiment: Cytotoxicity against African green monkey Vero cells; assay type: cell-based; conditions: Chlorocebus sabaeus
Mus musculus = experiment: Antidiabetic activity in C57BL/6 mouse assessed as decrease in plasma glucose AUC at 30 mg/kg, po pretreated for 30 mins followed by glucose challenge measured up to 120 mins by oGTT assay; assay type: functional, organism-based
Cytochrome P450 1A2 = molecular target: T4, Cytochrome P450 1A2 (Homo sapiens, UniProt P05177); experiment: Inhibition of CYP1A2 (unknown origin); assay type: ADME
T4 sequence (P05177 whole entry): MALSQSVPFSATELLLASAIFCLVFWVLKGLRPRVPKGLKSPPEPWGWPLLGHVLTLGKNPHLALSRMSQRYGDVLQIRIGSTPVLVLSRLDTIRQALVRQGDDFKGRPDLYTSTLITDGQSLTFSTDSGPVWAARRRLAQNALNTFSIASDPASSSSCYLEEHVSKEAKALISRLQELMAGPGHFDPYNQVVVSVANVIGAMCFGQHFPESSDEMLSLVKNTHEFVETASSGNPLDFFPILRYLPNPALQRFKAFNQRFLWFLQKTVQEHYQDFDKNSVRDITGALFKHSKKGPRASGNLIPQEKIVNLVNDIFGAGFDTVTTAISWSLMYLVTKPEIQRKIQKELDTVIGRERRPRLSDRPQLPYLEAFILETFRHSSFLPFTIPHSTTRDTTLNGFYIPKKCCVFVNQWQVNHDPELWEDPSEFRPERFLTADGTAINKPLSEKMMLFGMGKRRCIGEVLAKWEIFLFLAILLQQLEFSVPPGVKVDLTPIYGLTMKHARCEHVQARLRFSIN

[4] = Metabolic stability in rat liver microsomes assessed as compound remaining after 30 mins; assay type: ADME, microsome; conditions: read-out: Stability
Cytochrome P450 2D6 = Cytochrome P450 2D6 (Homo sapiens, UniProt P10635); experiment: Inhibition of CYP2D6 (unknown origin); assay type: ADME
HFL1 = experiment: Cytotoxicity against HFL1 cells; assay type: cell-based; conditions: Homo sapiens
hERG (KCNH2) = hERG (KCNH2) (Homo sapiens, UniProt Q12809); experiment: Inhibition of human ERG at 10 uM
Sequence of hERG (KCNH2) (Q12809 whole entry): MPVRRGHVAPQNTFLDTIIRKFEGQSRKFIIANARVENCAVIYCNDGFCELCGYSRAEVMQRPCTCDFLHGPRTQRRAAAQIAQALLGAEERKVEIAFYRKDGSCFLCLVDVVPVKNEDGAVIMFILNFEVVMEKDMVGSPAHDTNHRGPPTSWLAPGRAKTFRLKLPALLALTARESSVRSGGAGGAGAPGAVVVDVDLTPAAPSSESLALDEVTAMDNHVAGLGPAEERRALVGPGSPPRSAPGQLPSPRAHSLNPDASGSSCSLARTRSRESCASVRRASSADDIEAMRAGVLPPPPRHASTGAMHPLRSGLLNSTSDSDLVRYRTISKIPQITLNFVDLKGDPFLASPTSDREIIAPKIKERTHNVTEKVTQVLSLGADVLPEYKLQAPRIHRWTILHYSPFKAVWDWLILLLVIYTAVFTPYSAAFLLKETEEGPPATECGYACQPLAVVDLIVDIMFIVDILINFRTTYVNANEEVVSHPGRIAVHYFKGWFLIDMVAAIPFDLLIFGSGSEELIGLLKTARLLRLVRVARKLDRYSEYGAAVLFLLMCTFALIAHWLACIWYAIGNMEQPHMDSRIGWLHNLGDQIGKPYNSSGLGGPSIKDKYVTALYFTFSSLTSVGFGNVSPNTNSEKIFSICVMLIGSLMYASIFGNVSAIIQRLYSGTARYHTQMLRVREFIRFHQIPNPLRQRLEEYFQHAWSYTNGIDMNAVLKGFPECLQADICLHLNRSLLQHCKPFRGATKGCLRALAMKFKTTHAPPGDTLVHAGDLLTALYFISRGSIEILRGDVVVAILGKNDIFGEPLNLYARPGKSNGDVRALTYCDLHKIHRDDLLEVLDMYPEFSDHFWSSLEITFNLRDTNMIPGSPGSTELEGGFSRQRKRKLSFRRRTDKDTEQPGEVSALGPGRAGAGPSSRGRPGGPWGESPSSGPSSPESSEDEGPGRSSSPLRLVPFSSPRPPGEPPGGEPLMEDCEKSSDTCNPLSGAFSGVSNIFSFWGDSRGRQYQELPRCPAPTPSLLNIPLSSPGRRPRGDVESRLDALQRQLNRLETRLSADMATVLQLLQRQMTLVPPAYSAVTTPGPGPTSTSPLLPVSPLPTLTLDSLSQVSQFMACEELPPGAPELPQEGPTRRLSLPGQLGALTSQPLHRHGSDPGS

Sequence of Cytochrome P450 3A4 (P08684 whole entry): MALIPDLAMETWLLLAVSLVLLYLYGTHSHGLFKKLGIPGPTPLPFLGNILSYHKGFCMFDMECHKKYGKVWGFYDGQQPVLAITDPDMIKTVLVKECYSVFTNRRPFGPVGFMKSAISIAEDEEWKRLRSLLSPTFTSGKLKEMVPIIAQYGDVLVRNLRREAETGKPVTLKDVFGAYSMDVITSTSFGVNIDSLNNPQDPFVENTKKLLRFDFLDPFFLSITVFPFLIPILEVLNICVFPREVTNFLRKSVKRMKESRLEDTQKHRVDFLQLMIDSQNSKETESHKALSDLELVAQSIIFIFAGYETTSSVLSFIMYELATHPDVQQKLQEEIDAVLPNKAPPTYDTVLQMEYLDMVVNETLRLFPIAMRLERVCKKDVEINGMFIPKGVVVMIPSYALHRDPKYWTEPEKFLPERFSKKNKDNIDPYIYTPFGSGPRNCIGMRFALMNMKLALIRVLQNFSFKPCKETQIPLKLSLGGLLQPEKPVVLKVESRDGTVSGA
Sequence of Cytochrome P450 2D6 (P10635 whole entry): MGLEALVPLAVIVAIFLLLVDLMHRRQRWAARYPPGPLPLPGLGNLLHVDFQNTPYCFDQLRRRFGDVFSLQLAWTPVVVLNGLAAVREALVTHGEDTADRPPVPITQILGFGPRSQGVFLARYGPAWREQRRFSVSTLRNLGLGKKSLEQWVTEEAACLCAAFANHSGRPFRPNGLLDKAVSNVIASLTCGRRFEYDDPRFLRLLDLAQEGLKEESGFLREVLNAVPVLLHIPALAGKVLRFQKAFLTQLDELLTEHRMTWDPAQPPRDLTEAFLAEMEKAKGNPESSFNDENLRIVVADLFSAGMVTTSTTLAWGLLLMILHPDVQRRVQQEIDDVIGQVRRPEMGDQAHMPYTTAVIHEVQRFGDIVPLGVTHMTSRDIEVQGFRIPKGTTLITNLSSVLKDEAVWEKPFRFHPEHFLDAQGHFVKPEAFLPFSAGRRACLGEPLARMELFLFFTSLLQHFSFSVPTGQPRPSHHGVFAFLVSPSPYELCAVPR
Sequence of Cytochrome P450 2C19 (P33261 whole entry): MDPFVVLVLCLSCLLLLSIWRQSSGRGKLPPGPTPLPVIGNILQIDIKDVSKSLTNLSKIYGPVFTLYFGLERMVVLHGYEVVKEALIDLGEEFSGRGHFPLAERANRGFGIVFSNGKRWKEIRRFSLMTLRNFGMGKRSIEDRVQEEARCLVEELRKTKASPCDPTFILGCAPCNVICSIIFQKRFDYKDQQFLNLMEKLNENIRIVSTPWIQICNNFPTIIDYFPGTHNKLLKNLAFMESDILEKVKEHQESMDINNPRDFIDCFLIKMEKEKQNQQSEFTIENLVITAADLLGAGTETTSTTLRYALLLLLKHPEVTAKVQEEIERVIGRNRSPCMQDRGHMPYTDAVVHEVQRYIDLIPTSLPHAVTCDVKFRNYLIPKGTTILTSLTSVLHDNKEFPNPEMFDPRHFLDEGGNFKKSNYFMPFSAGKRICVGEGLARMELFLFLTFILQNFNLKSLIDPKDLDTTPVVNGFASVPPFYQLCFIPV

| Activity [1] | EC50 [2] | SMILES | also measured |
| --- | --- | --- | --- |
| 31% |  | CC(C)(O)CN1CCC(c2nc(COc3ccc(/C=C4\CC(=O)NC4=O)cc3F)cs2)CC1 |  |
| 61% | 0.24 µM | CCc1cnc(N2CCC(c3nc(COc4ccc(/C=C5\CC(=O)N(CC6CCOCC6)C5=O)cc4F)cs3)CC2)nc1 |  |
| 29% |  | O=C(O)CCc1cnc(N2CCC(c3nc(COc4ccc(-n5cnnn5)cc4)cs3)CC2)nc1 |  |
| 57% |  | CC(C)(C)OC(=O)N1CCC(c2nc(COc3ccc(/C=C4\CC(=O)NC4=O)cc3)cs2)CC1 |  |
| 94% | 0.049 µM | CCc1cnc(N2CCC(c3nc(COc4ccc(/C=C5\CC(=O)NC5=O)cc4F)cs3)CC2)nc1 | remaining at 0.5 h [3]: 48.9%; INH (Cytochrome P450 3A4): > 100 µM; INH (Cytochrome P450 2C19): > 100 µM; INH (Cytochrome P450 2A6): > 100 µM; IC50 (CHO-K1): > 100 µM; IC50 (NIH3T3): > 100 µM; IC50 (L929): > 100 µM; IC50 (Vero): > 100 µM; Activity (Mus musculus): Active; INH (Cytochrome P450 1A2): > 100 µM; remaining at 0.5 h [4]: 33%; INH (Cytochrome P450 2D6): > 100 µM; IC50 (HFL1): > 100 µM; inhibition at 10 µM (hERG (KCNH2)): 5.3% |
| 39% |  | CCc1cnc(N2CCC(c3nc(COc4ccc(/C=C5\SC(=S)NC5=O)cc4F)cs3)CC2)nc1 |  |
| 46% |  | Cc1cc(/C=C2\CC(=O)NC2=O)ccc1OCc1csc(C2CCN(CC(C)(C)F)CC2)n1 |  |
| 53% |  | CC(C)(F)CN1CCC(c2nc(COc3ccc(/C=C4\CC(=O)NC4=O)cc3F)cs2)CC1 |  |
| 36% |  | Cc1cc(/C=C2\CC(=O)NC2=O)ccc1OCc1csc(C2CCN(CC(C)(C)O)CC2)n1 |  |
| 90% | 0.018 µM | CCc1cnc(N2CCC(c3nc(COc4ccc(/C=C5\CC(=O)NC5=O)cc4C)cs3)CC2)nc1 | remaining at 0.5 h [3]: 17.1%; INH (Cytochrome P450 3A4): > 13.8 µM; INH (Cytochrome P450 2C19): > 100 µM; INH (Cytochrome P450 2A6): > 100 µM; IC50 (CHO-K1): > 100 µM; IC50 (NIH3T3): > 100 µM; IC50 (L929): > 100 µM; IC50 (Vero): > 100 µM; Activity (Mus musculus): Active; INH (Cytochrome P450 1A2): > 100 µM; remaining at 0.5 h [4]: 32.4%; INH (Cytochrome P450 2D6): > 100 µM; IC50 (HFL1): > 100 µM; inhibition at 10 µM (hERG (KCNH2)): 3.3% |
| 22% |  | NC(=O)CCc1cnc(N2CCC(c3nc(COc4ccc(-n5cnnn5)cc4)cs3)CC2)nc1 |  |
| 71% | 0.182 µM | CCc1cnc(N2CCC(c3nc(COc4ccc(/C=C5\CC(=O)NC5=O)cc4)cs3)CC2)nc1 |  |
| 118% | 0.103 µM | CC(C)(C)OC(=O)N1CCC(c2nc(COc3ccc(-n4cnnn4)cc3)cs2)CC1 |  |
| 30% |  | CC(C)(C)OC(=O)NCCNC(=O)CCc1cnc(N2CCC(c3nc(COc4ccc(-n5cnnn5)cc4)cs3)CC2)nc1 |  |
| 81% | 0.019 µM | Cc1cc(/C=C2\CC(=O)NC2=O)ccc1OCc1csc(C2CCN(C(=O)OC(C)(C)C)CC2)n1 |  |
| 28% |  | NCCOCCOCCOCCNC(=O)CCc1cnc(N2CCC(c3nc(COc4ccc(-n5cnnn5)cc4)cs3)CC2)nc1 |  |
| 55% |  | CCc1cnc(N2CCC(c3nc(COc4ccc(/C=C/C(=O)O)cc4F)cs3)CC2)nc1 |  |
| 43% |  | CCc1cnc(N2CCC(c3nc(COc4ccc(/C=C5\SC(=S)N(N)C5=O)cc4F)cs3)CC2)nc1 |  |
| 91% | 0.087 µM | CCc1cnc(N2CCC(c3nc(COc4ccc(-n5cnnn5)cc4)cs3)CC2)nc1 [MBX-2982] | remaining at 0.5 h [3]: 7.8%; INH (Cytochrome P450 3A4): 2.24 µM; INH (Cytochrome P450 2C19): > 100 µM; INH (Cytochrome P450 2A6): 3.53 µM; IC50 (CHO-K1): > 100 µM; IC50 (NIH3T3): > 100 µM; IC50 (L929): > 100 µM; IC50 (Vero): > 100 µM; Activity (Mus musculus): Active; INH (Cytochrome P450 1A2): > 100 µM; remaining at 0.5 h [4]: 20.6%; INH (Cytochrome P450 2D6): > 100 µM; IC50 (HFL1): > 100 µM; inhibition at 10 µM (hERG (KCNH2)): 10.5% |
| 49% |  | CCc1cnc(N2CCC(c3nc(COc4ccc(/C=C5\CC(=O)N(CCN6CCOCC6)C5=O)cc4F)cs3)CC2)nc1 |  |

| Activity [1] | EC50 [2] | SMILES | also measured |
| --- | --- | --- | --- |
| 69% | 0.157 µM | CC(C)(C)OC(=O)N1CCC(c2nc(COc3ccc(/C=C4\CC(=O)NC4=O)cc3F)cs2)CC1 |  |
| 27% |  | CC(C)(O)CN1CCC(c2nc(COc3ccc(/C=C4\CC(=O)NC4=O)cc3)cs2)CC1 |  |
| 60% | 0.78 µM | CCc1cnc(N2CCC(c3nc(COc4ccc(/C=C5\SC(=O)NC5=O)cc4F)cs3)CC2)nc1 |  |
| 25% |  | [N-]=[N+]=NCCOCCOCCOCCNC(=O)CCc1cnc(N2CCC(c3nc(COc4ccc(-n5cnnn5)cc4)cs3)CC2)nc1 |  |
| 65% | 0.1 µM | CCc1cnc(N2CCC(c3nc(COc4ccc(/C=C5\CCNC5=O)cc4F)cs3)CC2)nc1 |  |
| 63% |  | CCc1cnc(N2CCC(c3nc(COc4ccc(/C=C5\CC(=O)N(CCNC(=O)OC(C)(C)C)C5=O)cc4F)cs3)CC2)nc1 |  |
| 28% |  | C[N+](C)(C)CCNC(=O)CCc1cnc(N2CCC(c3nc(COc4ccc(-n5cnnn5)cc4)cs3)CC2)nc1 |  |
| 67% | 0.082 µM | CCc1cnc(N2CCC(c3nc(COc4ccc(/C=C5\CC(=O)N(c6ccccc6)C5=O)cc4F)cs3)CC2)nc1 |  |
| 51% |  | CCc1cnc(N2CCC(c3nc(COc4ccc(/C=C5\CC(=O)N(CCN)C5=O)cc4F)cs3)CC2)nc1 |  |
| 41% |  | CC(C)(C)OC(=O)N1CCC(c2nc(COc3c(F)cc(/C=C4\CC(=O)NC4=O)cc3F)cs2)CC1 |  |
| 32% |  | CCc1cnc(N2CCC(c3nc(COc4ccc(/C=C5\CC(=S)N(CC(=O)O)C5=O)cc4F)cs3)CC2)nc1 |  |
| 42% |  | CC(C)(F)CN1CCC(c2nc(COc3c(F)cc(/C=C4\CC(=O)NC4=O)cc3F)cs2)CC1 |  |
| 20% |  | N=C(N)NC(=N)N1CCC(c2nc(COc3ccc(-n4cnnn4)cc3)cs2)CC1 |  |
| 59% | 0.211 µM | CCc1cnc(N2CCC(c3nc(COc4c(F)cc(/C=C5\CC(=O)NC5=O)cc4F)cs3)CC2)nc1 |  |
| 48% |  | CC(C)(F)CN1CCC(c2nc(COc3ccc(/C=C4\CC(=O)NC4=O)cc3)cs2)CC1 |  |
| 34% |  | CCOC(=O)CCc1cnc(N2CCC(c3nc(COc4ccc(-n5cnnn5)cc4)cs3)CC2)nc1 |  |
| 32% |  | CC(C)(O)CN1CCC(c2nc(COc3c(F)cc(/C=C4\CC(=O)NC4=O)cc3F)cs2)CC1 |  |
| 27% |  | NCCNC(=O)CCc1cnc(N2CCC(c3nc(COc4ccc(-n5cnnn5)cc4)cs3)CC2)nc1 |  |
| 26% |  | O=C(CCc1cnc(N2CCC(c3nc(COc4ccc(-n5cnnn5)cc4)cs3)CC2)nc1)NOCc1ccccc1 |  |
